# Ends that are not written are not given here.
# Tested on: Antioxidant Response Element (ARE), Nrf2 antioxidant pathway
# Assay: Antioxidant Response Element (ARE) luciferase reporter assay
# Format: cell-based
# Settings: 0 μM to 50 μM with respect to peptide; 24 hours; FIGS. 38A, 38B
# Procedure: The Antioxidant Response Element (ARE) Luciferase Reporter HepG2 Cell line was used to probe Nrf2 antioxidant pathway activation. ARE-HepG2 cells were cultured in growth media (BPS bioscience) according to manufacturer's recommendations. […] PLPs and peptides were tested at concentrations ranging from 0 μM to 50 μM with respect to peptide along with controls (untreated and tBHQ positive control at 100 μM) in triplicate. Cells were incubated for 24 hours post-treatment. ONE-step luciferase assay reagent was added at 100 μL/well, followed by rocking at room temperature for 15 min. Luminescence was assessed using a Biotek SynergyNeo2 plate reader. Background luminescence of cell free controls wells was subtracted from test wells. ARE activation was reported as luminescence relative to the average of the untreated controls wells.
row,Compound,ARE activation
1,"ScrambleR PLP: scrambleRRRR polynorbornene dicarboxyimide-based brush polymer comprising SEQ ID NO: 146 (DELEPLTGFRRRR) peptide monomer, Example 14 (also: part of polynorbornene dicarboxyimide-based brush polymer) [reference compound]",did not activate ARE
2,CC(C)C[C@H](NC(=O)[C@H](Cc1ccccc1)NC(=O)[C@H](CCC(=O)O)NC(=O)CNC(=O)[C@@H](NC(=O)[C@H](CCC(=O)O)NC(=O)[C@@H]1CCCN1C(=O)[C@H](CC(=O)O)NC(=O)[C@@H](N)CC(C)C)[C@@H](C)O)C(=O)N[C@@H](CCCNC(=N)N)C(=O)N[C@@H](CCCNC(=N)N)C(=O)N[C@@H](CCCNC(=N)N)C(=O)N[C@@H](CCCNC(=N)N)C(N)=O [SEQ ID NO: 72],did not activate ARE
3,"Full Scramble PLP: full scramble polynorbornene dicarboxyimide-based brush polymer comprising SEQ ID NO: 143 (DERLERPLTRGFR) peptide monomer, Example 13 (also: part of polynorbornene dicarboxyimide-based brush polymer) [reference compound]",did not activate ARE

# Reference: patent US20240189385A1, “KEAP1/NRF2 PROTEIN-LIKE POLYMERS” (Northwestern University, priority 2021, published 2024)
